Patent publication EP1435941B1 (ARIZONA BOARD OF REGENTS on behalf of THE UNIVERSITY OF …, priority 2001, dated 2003)
Read-outs that look alike come from different tables or passages of the source.

How the values were obtained:
[1] = biological target: phesphatidylinositol-3-kinase; experiment: PI-3 kinase enzyme inhibition; type: biochemical; conditions: read-out: P1-3 kinase Inhibition IC50
Source text: (§1) Highlighted are the compounds being made for antitumor testing.

NCl cell panel [2] = conditions: nci cell panel, 48 h
C57BL6 mice = experiment: Toxicity in mice, intraperitoneal daily for 4 days (MTD, differential blood counts, serum chemistry); type: in vivo; conditions: for Maximum tolerated dose: Ip qD x 4, MTD=>10% body weight loss, C57BL6 mice; for Liver toxicity relative to wortmannie: mean percent increase in serum ALT and AST at the MTD or highest dose tested; for Liver toxicity relative to wortmannie / Lymphocyte toxicity relative to wortmannin: wortmannin as 1.0; for Lymphocyte toxicity relative to wortmannin: percent decrease in lymphocyte counts at the MTD or highest dose tested
Source text: as §1

mTOR = mTOR enzyme inhibition; type: biochemical; conditions: dose to cause 50% inhibition
Source text: as §1

NCl cell panel [3] = experiment: Cytotoxicity, MTT assay; conditions: read-out: cytotoxieity NCl cell panel IC50
[4] = 2 day MTT assay, mean of 60 cell lines

Compound | IC50 ([1]; dose to cause 50% inhibition) [nM] | IC50 (NCl cell panel [2]) [nM] | Maximum tolerated dose (C57BL6 mice) [mg/kg] | Liver toxicity relative to wortmannie (C57BL6 mice) | Lymphocyte toxicity relative to wortmannin (C57BL6 mice) | IC50 (mTOR) [nM] | IC50 (NCl cell panel [3]; [4]) [nM] | IC50 [1] [nM] | IC50 (NCl cell panel [3]; Homo sapiens, 60 cell, 48 h) [nM]
COC[C@H]1OC(=O)/C(=C/N2CCCC2)C2=C(O)C(=O)C3=C([C@H](OC(C)=O)C[C@]4(C)C(=O)CC[C@@H]34)[C@]21C [DJM2-167, Acetic acid 6-hydroxy-1α-methoxymethyl-10β,13β-dimethyl-3,7,17-trioxo-4-pyrrolidin-1-yl-methylene-1,3,4,7,10,11β,12,13,14α,15,16,17-dodecahydro-2-oxa-cyclopenta[a]phenanthren-11-yl] | 1100 | 500 | – | – | – | – | – | – | –
COC[C@H]1OC(=O)/C(=C/SCc2ccccc2)C2=C(O)C(=O)C3=C([C@H](OC(C)=O)C[C@]4(C)C(=O)CC[C@@H]34)[C@]21C [DJM2-170] | 1000 | – | 9 | 1.7 | 1.1 | > 3000 | 7100 | – | –
COC[C@H]1OC(=O)/C(=C/NC(C)C(=O)O)C2=C(O)C(=O)C3=C([C@H](OC(C)=O)C[C@]4(C)C(=O)CC[C@@H]34)[C@]21C (stereo partly drawn) [DJM2-177] | 300 | – | 6 | 0.2 | 2.0 | 1500 | 10200 | – | –
COC[C@H]1OC(=O)C(=CN(C)Cc2ccccc2)C2=C(O)C(=O)C3=C([C@H](OC(C)=O)C[C@]4(C)C(=O)CC[C@@H]34)[C@]21C [DJM2-181, Acetic acid 4-[(benzylmethylamino)methylene]-6-hydroxy-1α-methoxymethyl-10β,13β-dimethyl-3,7,17-trioxo-1,3,4,7,10,11β,12,13, 14α,15,16,17-dodecahydro-2-oxa-cyclopenca[a]phenanthren-11-yl ester] | 100 | 700 | > 18 | – | – | > 3000 | – | – | –
COC[C@H]1OC(=O)/C(=C/NCC(N)=O)C2=C(O)C(=O)C3=C([C@H](OC(C)=O)C[C@]4(C)C(=O)CC[C@@H]34)[C@]21C [DJM2-190] | 10000 | – | – | – | 0.6 | > 3000 | 33000 | – | –
COC[C@H]1OC(=O)c2coc3c2[C@@]1(C)C1=C(C3=O)[C@@H]2CCC(=O)[C@@]2(C)C[C@H]1OC(C)=O [wortmannin, reference compound] | – | – | – | – | – | – | – | 300 | 8900
